{"source": "paper PMC12669732", "about": "“Synergistic targeting of cancer cells through simultaneous inhibition of key metabolic enzymes” (Cell Death and Differentiation, 2025)", "key": {"[1]": {"target": "T1, complex I (Homo sapiens, UniProt O75251+O75306+P03886)", "T1 construct": "gene NDUFS2; native respiratory complex I (whole multi-subunit complex)", "T1 sequence (O75306 34-463)": "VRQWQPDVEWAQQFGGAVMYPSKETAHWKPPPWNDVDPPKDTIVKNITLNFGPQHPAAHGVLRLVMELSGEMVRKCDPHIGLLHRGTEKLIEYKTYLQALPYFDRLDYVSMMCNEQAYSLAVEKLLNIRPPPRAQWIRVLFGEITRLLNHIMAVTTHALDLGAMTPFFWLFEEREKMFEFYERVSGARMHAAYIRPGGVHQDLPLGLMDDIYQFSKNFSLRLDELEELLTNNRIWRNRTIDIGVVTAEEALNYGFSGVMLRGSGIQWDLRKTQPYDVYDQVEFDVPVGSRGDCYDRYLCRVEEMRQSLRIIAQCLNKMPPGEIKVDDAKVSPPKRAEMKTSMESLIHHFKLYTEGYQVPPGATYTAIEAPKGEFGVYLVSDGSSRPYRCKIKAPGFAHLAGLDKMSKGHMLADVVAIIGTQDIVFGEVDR", "T1 sequence (O75251 39-213)": "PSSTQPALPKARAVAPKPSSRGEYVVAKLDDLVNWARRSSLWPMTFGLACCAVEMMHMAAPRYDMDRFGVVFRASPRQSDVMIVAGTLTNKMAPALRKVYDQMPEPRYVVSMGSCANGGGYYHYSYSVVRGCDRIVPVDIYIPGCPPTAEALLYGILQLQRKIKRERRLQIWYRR", "T1 sequence (P03886 whole entry)": "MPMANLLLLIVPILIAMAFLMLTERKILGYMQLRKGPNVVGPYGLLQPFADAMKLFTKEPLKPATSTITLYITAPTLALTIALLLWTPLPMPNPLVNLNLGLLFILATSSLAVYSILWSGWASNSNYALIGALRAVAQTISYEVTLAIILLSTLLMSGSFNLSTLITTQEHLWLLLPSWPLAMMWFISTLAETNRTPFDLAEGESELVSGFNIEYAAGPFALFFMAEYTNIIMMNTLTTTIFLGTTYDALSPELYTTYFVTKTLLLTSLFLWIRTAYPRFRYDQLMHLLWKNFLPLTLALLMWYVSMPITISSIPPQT", "assay": "spectrophotometric NADH oxidation, rotenone-sensitive complex I activity", "type": "biochemical", "conditions": "120 uM NADH, 20 uM oxidized cytochrome c, pH 7.5, 37 °C; Q-site (ubiquinone reduction site), no effect at NADH site"}, "[2]": {"target": "T2, complex I (bovine heart) (Bos taurus, UniProt P03887+P17694+P42026)", "T2 construct": "gene NDUFS2; native respiratory complex I (whole multi-subunit complex)", "T2 sequence (P17694 34-463)": "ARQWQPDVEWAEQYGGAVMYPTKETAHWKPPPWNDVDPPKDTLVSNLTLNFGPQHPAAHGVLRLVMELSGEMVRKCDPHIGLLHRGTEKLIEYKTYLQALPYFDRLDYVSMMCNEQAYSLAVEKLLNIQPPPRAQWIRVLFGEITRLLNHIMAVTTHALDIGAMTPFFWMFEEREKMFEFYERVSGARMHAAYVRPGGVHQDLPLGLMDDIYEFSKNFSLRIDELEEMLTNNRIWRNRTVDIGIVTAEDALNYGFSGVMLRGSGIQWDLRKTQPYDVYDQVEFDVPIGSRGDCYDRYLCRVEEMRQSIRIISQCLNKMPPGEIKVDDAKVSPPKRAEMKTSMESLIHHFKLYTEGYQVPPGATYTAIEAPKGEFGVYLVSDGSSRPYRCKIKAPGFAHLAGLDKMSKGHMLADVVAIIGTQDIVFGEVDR", "T2 sequence (P42026 38-216)": "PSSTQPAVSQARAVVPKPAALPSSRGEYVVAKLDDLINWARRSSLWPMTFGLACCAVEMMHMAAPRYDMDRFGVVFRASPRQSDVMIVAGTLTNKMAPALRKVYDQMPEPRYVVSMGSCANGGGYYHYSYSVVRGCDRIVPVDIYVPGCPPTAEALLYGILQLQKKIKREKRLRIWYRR", "T2 sequence (P03887 whole entry)": "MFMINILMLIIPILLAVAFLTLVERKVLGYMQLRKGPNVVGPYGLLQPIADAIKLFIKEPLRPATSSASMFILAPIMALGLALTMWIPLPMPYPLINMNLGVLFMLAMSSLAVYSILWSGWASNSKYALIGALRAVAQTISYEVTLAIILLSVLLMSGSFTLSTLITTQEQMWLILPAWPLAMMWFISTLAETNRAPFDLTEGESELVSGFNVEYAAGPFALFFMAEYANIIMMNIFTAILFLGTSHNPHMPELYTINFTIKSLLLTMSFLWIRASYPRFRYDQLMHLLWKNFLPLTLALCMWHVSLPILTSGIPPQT", "assay": "spectrophotometric NADH oxidation, rotenone-sensitive complex I activity", "type": "biochemical", "conditions": "120 uM NADH, 20 uM oxidized cytochrome c, pH 7.5, 37 °C; Q-site (ubiquinone reduction site), no effect at NADH site"}}}
{"compound": "C[C@@H](C(=O)Nc1ccc(Cl)cc1)[C@H]1CC[C@@H](c2ccnc3ccc(F)cc32)CC1", "note": "[BMS-986205]", "values": [{"measurement": "complex I activity", "setting": "[1]", "result": "dose-dependent decrease of complex I activity in mitochondria from KRAS^G12V/MYC, HEK293T cells and bovine heart"}, {"measurement": "complex I activity", "setting": "[2]", "result": "dose-dependent decrease of complex I activity in mitochondria from KRAS^G12V/MYC, HEK293T cells and bovine heart"}]}
